For series [1], the system named is disorders of cardiac rhythm provoked by aconitine in rats. Type of series: in vivo. The conditions noted are these: ED50 rat i.v. / LD50 mouse i.v. How it is done: When examining the antiarrhythmic effects, rats were pre-treated intravenously with 1 mg/kg of aconitine to provoke disorders of cardiac rhythm [Med. Exp. (Basel) 10, 93 (1964)], thereafter the test compound was administered intravenously, and the dose required to restore the rhythm in 50% (ED50 mg/kg) was determined.

A short description of the next series: in vivo. The conditions noted are these: mouse, iv.
Series [2] has as its system calcium antagonistic effect. Briefly: Calcium antagonistic effect (pA2).

Counter-ions that a name gives are not always drawn.

A word on the LD50: it is the dose at which mortality reaches 50%. The low end stands for a more toxic substance, the high end for a less toxic substance.

For the molecule `CN1CC2CN(C)CC(C1)C2OC(=O)C1c2ccccc2Oc2ccccc21` (stereo not shown) [3,7-dimethyl-9-(xanthene-9'-carbonyloxy)-3,7-diazabicyclo[3.3.1]nonane], the “Therap. index (ED50/LD50)” value in series [1] worked out at 0.019. The molecule further yielded an LD50 in the series “in vivo” of 14 mg/kg. Take `CCCCN1CC2CN(CCCC)CC(C1)C2OC(=O)c1ccc(Cl)cc1` (stereo not shown) [3,7-di-n-butyl-9-(4'-chlorobenzoyloxy)-3,7-diazabicyclo[3.3.1]nonane]: in series [1], the “Therap. index (ED50/LD50)” value came to 0.050. For the same molecule, the LD50 in “in vivo” turned out to be 5 mg/kg.

As to `CN1CC2CN(C)CC(C1)C2OC(c1ccccc1)c1ccccc1.O=C(O)/C=C/C(=O)O` (stereo not shown) [3,7-Dimethyl-9-benzhydryloxy-3,7-diazabicyclo[3.3.1]nonane fumarate], the “Therap. index (ED50/LD50)” value in series [1] is on record as 0.057. In the series “in vivo”, this molecule returned an LD50 of 21 mg/kg. With `CCOc1ccc(C(=O)OC2C3CN(C)CC2CN(C)C3)cc1OC` (stereo not shown) [3,7-Dimethyl-9-(3'-methoxy-4'-ethoxy-benzoyloxy)-3,7-diazabicyclo[3.3.1]nonane], the “Therap. index (ED50/LD50)” value in series [1] stood at 0.074. For the same molecule, in “in vivo”, the LD50 was 13.5 mg/kg. In the case of `CN1CC2CN(C)CC(C1)C2Oc1ccc(Cl)cc1.O=C(O)/C=C/C(=O)O` (stereo not shown) [3,7-Dimethyl-9-(4'-chlorophenoxy)-3,7-diazabicyclo[3.3.1]nonane fumarate], in series [1], the “Therap. index (ED50/LD50)” value is given as 0.017. The molecule further yielded an LD50 in “in vivo” of 52 mg/kg.

For `CCN1CC2CN(C)CC(C1)C2Oc1ccccc1Cl` (stereo not drawn) [3-Methyl-7-ethyl-9α-(2'-chlorophenoxy)-3,7-diazabicyclo[3.3.1]nonanedihydrochloride], in series [1], the “Therap. index (ED50/LD50)” value was 0.041. In the series “in vivo”, the median lethal dose (LD50) was found to be 28 mg/kg. For the molecule `CCN1CC2CN(CC)CC(C1)C2OC(=O)c1ccc(Cl)cc1.Cl.Cl.O` (stereo not shown) [3,7-diethyl-9-(4'-chloro-benzoyloxy)-3,7-diazabicyclo[3.3.1]nonane dihydrochloride monohydrate], the “Therap. index (ED50/LD50)” value in series [1] stood at 0.036. Further, the LD50 in “in vivo” was 11 mg/kg. On to `CN1CC2CN(C)CC(C1)C2OC(=O)c1ccc2ccccc2c1` (stereo not shown) [3,7-dimethyl-9-(2'-naphthoyloxy)-3,7-diazabicyclo[3.3.1]nonane], for which the “Therap. index (ED50/LD50)” value in series [1] worked out at 0.006. Also, the LD50 in “in vivo” stood at 17 mg/kg. Consider `CCN1CC2CN(C)CC(C1)C2OC(=O)c1ccc(Cl)cc1Cl` (stereo not drawn) [3-Methyl-7-ethyl-9α-(2',4'-dichloro-benzoyloxy)-3,7-diazabicyclo[3.3.1]nonane dihydrochloride], for which the “Therap. index (ED50/LD50)” value in series [1] is on record as 0.055. The same molecule gave an LD50 in the series “in vivo” of 20 mg/kg. With `CCN1CC2CN(C)CC(C1)C2OC(=O)c1ccc(-c2ccccc2)cc1` (stereo not drawn) [3-Methyl-7-ethyl-9α-(4'-phenyl-benzoyloxy)-3,7-diazabicyclo[3.3.1]nonane], the “Therap. index (ED50/LD50)” value in series [1] is given as 0.061. For the same molecule, the LD50 in “in vivo” was 19.5 mg/kg. For the molecule `CN1CC2CN(C)CC(C1)C2OC(=O)c1ccccc1` (stereo not shown) [3,7-Dimethyl-9-benzoyloxy-3,7-diazabicyclo[3.3.1]nonane], the “Therap. index (ED50/LD50)” value in series [1] was 0.009. The molecule further had an LD50 in “in vivo” of 9 mg/kg. As to `CCN1CC2CN(C)CC(C1)C2OC(=O)c1ccc(Cl)cc1` (stereo not drawn) [3-Methyl-7-ethyl-9α-(4'-chloro-benzoyloxy)-3,7-diazabicyclo[3.3.1]nonane dihydrochloride], the “calcium antagonistic effect (pA2)” value in series [2] is given as 4.33-4.6. As to `CN1CC2CN(C)CC(C1)C2Oc1ccccc1.O=C(O)/C=C/C(=O)O` (stereo not shown) [3,7-dimethyl-9-phenoxy-3,7-diazabicyclo[3.3.1]nonane fumarate], the “Therap. index (ED50/LD50)” value in series [1] stood at 0.029. Moreover, the LD50 in the series “in vivo” was found to be 39 mg/kg. Regarding `COc1ccc(CCN(C)CCCC(C#N)(c2ccc(OC)c(OC)c2)C(C)C)cc1OC` (racemic) [Verapramil, reference compound], the “calcium antagonistic effect (pA2)” value in series [2] is 4.58-4.7. Regarding `CCN1CC2CN(C)CC(C1)C2Oc1ccc(Cl)cc1` (stereo not drawn) [3-Methyl-7-ethyl-9α-(4'-chlorophenoxy)-3,7-diazabicyclo[3.3.1]nonanedihydrochloride], the “Therap. index (ED50/LD50)” value in series [1] stood at 0.030. The molecule further returned a 50% lethal dose (LD50) in the series “in vivo” of 41 mg/kg.

The values above are taken from patent publication US4451473A, “3,7-Diazabicyclo [3.3.1] nonanes having anti-arrhythmic activity” (Richter Gedeon Vegyeszeti Gyar Rt., priority 1981, dated 1984).
